Results taken from ChEMBL document CHEMBL3585283, “Synthesis and evaluation of a series of quinolinyl trans-cyanostilbene analogs as anticancer agents” (2014).
The source made the active and inactive calls. The rule behind the calls is not given here.

How the values were obtained:
[1] = Antitumor activity against human LOXIMVI cells after 48 hrs; assay type: functional; conditions: LOX IMVI
M14 = assay: Antitumor activity against human M14 cells after 48 hrs; assay type: functional; conditions: M14, 48 h
IGROV-1 = assay: Antitumor activity against human IGROV1 cells after 48 hrs; assay type: functional; conditions: IGROV-1, 48 h
MDA-MB-231 = assay: Antitumor activity against human MDA-MB-231 cells after 48 hrs; assay type: functional; conditions: MDA-MB-231, 48 h
ACHN = assay: Antitumor activity against human ACHN cells after 48 hrs; assay type: functional
NCI-H322M = assay: Antitumor activity against human NCI-H322M cells after 48 hrs; assay type: functional
SR = assay: Antitumor activity against human SR cells after 48 hrs; assay type: functional
UO-31 = assay: Antitumor activity against human UO31 cells after 48 hrs; assay type: functional; conditions: UO-31, 48 h
HOP-62 = assay: Antitumor activity against human HOP62 cells after 48 hrs; assay type: functional; conditions: HOP-62, 48 h
SW-620 = assay: Antitumor activity against human SW620 cells after 48 hrs; assay type: functional
A549 = assay: Antitumor activity against human A549 cells after 48 hrs; assay type: functional; conditions: A549, 48 h
[2] = Antitumor activity against human MOLT4 cells after 48 hrs; assay type: functional; conditions: MOLT-4, 48 h
NCI-H226 = assay: Antitumor activity against human NCI-H226 cells after 48 hrs; assay type: functional; conditions: NCI-H226, 48 h
K562 = assay: Antitumor activity against human K562 cells after 48 hrs; assay type: functional; conditions: K562, 48 h
[3] = Antitumor activity against human COLO205 cells after 48 hrs; assay type: functional; conditions: COLO 205, 48 h
SNB-75 = assay: Antitumor activity against human SNB75 cells after 48 hrs; assay type: functional; conditions: SNB-75, 48 h
SN12C = assay: Antitumor activity against human SN12C cells after 48 hrs; assay type: functional
HCT-116 = assay: Antitumor activity against human HCT116 cells after 48 hrs; assay type: functional; conditions: HCT-116, 48 h
[4] = Antitumor activity against human HCC2998 cells after 48 hrs; assay type: functional; conditions: HCC 2998, 48 h
CCRF-CEM = assay: Antitumor activity against human CCRF-CEM cells after 48 hrs; assay type: functional
[5] = Antitumor activity against human RPMI8226 cells after 48 hrs; assay type: functional; conditions: RPMI-8226, 48 h
[6] = Antitumor activity against human HOP92 cells after 48 hrs; assay type: functional; conditions: HOP-92, 48 h
[7] = Antitumor activity against human BT549 cells after 48 hrs; assay type: functional; conditions: BT-549, 48 h
OVCAR-5 = assay: Antitumor activity against human OVCAR5 cells after 48 hrs; assay type: functional; conditions: OVCAR-5, 48 h
[8] = Antitumor activity against human RXF393 cells after 48 hrs; assay type: functional; conditions: RXF 393, 48 h
KM12 = assay: Antitumor activity against human KM12 cells after 48 hrs; assay type: functional; conditions: KM12, 48 h
MDA-MB-435 = assay: Antitumor activity against human MDA-MB-435 cells after 48 hrs; assay type: functional; conditions: MDA-MB-435, 48 h
UACC-62 = assay: Antitumor activity against human UACC62 cells after 48 hrs; assay type: functional; conditions: UACC-62, 48 h
OVCAR-4 = assay: Antitumor activity against human OVCAR4 cells after 48 hrs; assay type: functional; conditions: OVCAR-4, 48 h
OVCAR-3 = assay: Antitumor activity against human OVCAR3 cells after 48 hrs; assay type: functional; conditions: OVCAR-3, 48 h
NCI-H23 = assay: Antitumor activity against human NCI-H23 cells after 48 hrs; assay type: functional; conditions: NCI-H23, 48 h
NCI-H522 = assay: Antitumor activity against human NCI-H522 cells after 48 hrs; assay type: functional; conditions: NCI-H522, 48 h
[9] = Antitumor activity against human SF539 cells after 48 hrs; assay type: functional; conditions: SF-539, 48 h
SK-MEL-2 = assay: Antitumor activity against human SK-MEL-2 cells after 48 hrs; assay type: functional; conditions: SK-MEL-2, 48 h
SF-268 = assay: Antitumor activity against human SF268 cells after 48 hrs; assay type: functional; conditions: SF-268, 48 h
MCF7 = assay: Antitumor activity against human MCF7 cells after 48 hrs; assay type: functional; conditions: MCF7, 48 h
PC-3 = assay: Antitumor activity against human PC3 cells after 48 hrs; assay type: functional; conditions: PC-3, 48 h
CAKI-1 = assay: Antitumor activity against human Caki1 cells after 48 hrs; assay type: functional; conditions: CAKI-1, 48 h
HL-60(TB) = assay: Antitumor activity against human HL-60(TB) cells after 48 hrs; assay type: functional; conditions: HL-60, 48 h
[10] = Antitumor activity against human NCI-ADR-RES cells after 48 hrs; assay type: functional
Malme-3M = assay: Antitumor activity against human MALME-3M cells after 48 hrs; assay type: functional
T47D = assay: Antitumor activity against human T47D cells after 48 hrs; assay type: functional
U-251 = assay: Antitumor activity against human U251 cells after 48 hrs; assay type: functional; conditions: U-251, 48 h
TK-10 = assay: Antitumor activity against human TK10 cells after 48 hrs; assay type: functional; conditions: TK-10, 48 h
SNB-19 = assay: Antitumor activity against human SNB19 cells after 48 hrs; assay type: functional; conditions: SNB-19, 48 h
SK-MEL-28 = assay: Antitumor activity against human SK-MEL-28 cells after 48 hrs; assay type: functional; conditions: SK-MEL-28, 48 h
DU-145 = assay: Antitumor activity against human DU145 cells after 48 hrs; assay type: functional; conditions: DU-145, 48 h
[11] = Antitumor activity against human Hs578T cells after 48 hrs; assay type: functional; conditions: Hs-578T
A498 = assay: Antitumor activity against human A498 cells after 48 hrs; assay type: functional; conditions: A498, 48 h
NCI-H460 = assay: Antitumor activity against human NCI-H460 cells after 48 hrs; assay type: functional; conditions: NCI-H460, 48 h
OVCAR-8 = assay: Antitumor activity against human OVCAR8 cells after 48 hrs; assay type: functional; conditions: OVCAR-8, 48 h
HT-29 = assay: Antitumor activity against human HT-29 cells after 48 hrs; assay type: functional; conditions: HT-29, 48 h
786-0 = assay: Antitumor activity against human 786-0 cells after 48 hrs; assay type: functional; conditions: 786-0, 48 h
SK-MEL-5 = assay: Antitumor activity against human SK-MEL-5 cells after 48 hrs; assay type: functional; conditions: SK-MEL-5, 48 h
EKVX = assay: Antitumor activity against human EKVX cells after 48 hrs; assay type: functional, cell-based
[12] = Antitumor activity against human SF295 cells after 48 hrs; assay type: functional; conditions: SF-295, 48 h
MDA-MB-468 = assay: Antitumor activity against human MDA-MB-468 cells after 48 hrs; assay type: functional; conditions: MDA-MB-468, 48 h
SK-OV-3 = assay: Antitumor activity against human SKOV3 cells after 48 hrs; assay type: functional; conditions: SK-OV-3, 48 h
HCT-15 = assay: Antitumor activity against human HCT15 cells after 48 hrs; assay type: functional; conditions: HCT-15, 48 h

`COc1cc(OC)cc(/C(C#N)=C/c2ccc3ccccc3n2)c1` showed a GI50 [1] of 610 nM, a GI50 (M14) of 360 nM and a GI50 (IGROV-1) of 958 nM. For the same compound, the GI50 (MDA-MB-231) was 1020 nM, the GI50 (ACHN) was 773 nM and the GI50 (NCI-H322M) was 3020 nM. The GI50 (SR) was “inactive”, the GI50 (UO-31) was 573 nM and the GI50 (HOP-62) was 959 nM. The GI50 (SW-620; SW-620, 48 h) was 357 nM, the GI50 (A549) was 649 nM and the GI50 [2] was 419 nM. It also gave a GI50 (NCI-H226) of 10800 nM, a GI50 (K562) of 353 nM and a GI50 [3] of 374 nM. It also gave a GI50 (SNB-75) of 311 nM, a GI50 (SN12C) of 661 nM and a GI50 (HCT-116) of 416 nM. For the same compound, the GI50 [4] was 1420 nM, the GI50 (CCRF-CEM) was 332 nM and the GI50 [5] was 433 nM. The GI50 [6] was 542 nM, the GI50 [7] was 342 nM and the GI50 (OVCAR-5) was 716 nM. It also gave a GI50 [8] of 334 nM, a GI50 (KM12) of 425 nM and a GI50 (MDA-MB-435) of 147 nM. It also gave a GI50 (UACC-62) of 449 nM, a GI50 (OVCAR-4) of 788 nM and a GI50 (OVCAR-3) of 309 nM. The GI50 (NCI-H23) was 983 nM, the GI50 (NCI-H522) was 94 nM and the GI50 [9] was 286 nM. It also gave a GI50 (SK-MEL-2) of 522 nM, a GI50 (SF-268) of 476 nM and a GI50 (MCF7) of 537 nM. For the same compound, the GI50 (PC-3) was 584 nM, the GI50 (CAKI-1) was 318 nM and the GI50 (HL-60(TB)) was 270 nM. It also gave a GI50 [10] of 283 nM, a GI50 (Malme-3M) of 348 nM and a GI50 (T47D) of 1230 nM. For the same compound, the GI50 (U-251) was 425 nM, the GI50 (TK-10) was 3280 nM and the GI50 (SNB-19) was 728 nM. For the same compound, the GI50 (SK-MEL-28) was 896 nM, the GI50 (DU-145) was 801 nM and the GI50 [11] was 700 nM. It also gave a GI50 (A498) of 275 nM, a GI50 (NCI-H460) of 339 nM and a GI50 (OVCAR-8) of 659 nM. The GI50 (HT-29) was 367 nM, the GI50 (786-0) was 501 nM and the GI50 (SK-MEL-5) was 406 nM. The GI50 (EKVX) was “inactive”, the GI50 [12] was 341 nM and the GI50 (MDA-MB-468) was 1500 nM. The GI50 (SK-OV-3) was 804 nM and the GI50 (HCT-15) was 409 nM.

With `COc1cc(/C(C#N)=C/c2cnc3ccccc3c2)cc(OC)c1OC` the GI50 [1] was 645 nM, the GI50 (M14) was 540 nM and the GI50 (IGROV-1) was 3150 nM. It also gave a GI50 (MDA-MB-231) of 2830 nM, a GI50 (ACHN) of 911 nM and a GI50 (NCI-H322M) of 27400 nM. The GI50 (SR) was 569 nM, the GI50 (UO-31) was 580 nM and the GI50 (HOP-62) was 10300 nM. The GI50 (SW-620) was “inactive”, the GI50 (A549) was 680 nM and the GI50 [2] was 3200 nM. The GI50 (NCI-H226) was greater than 100000 nM, the GI50 (K562) was 444 nM and the GI50 [3] was 374 nM. For the same compound, the GI50 (SNB-75) was 1490 nM, the GI50 (SN12C) was 1940 nM and the GI50 (HCT-116) was 464 nM. For the same compound, the GI50 [4] was 2010 nM, the GI50 (CCRF-CEM) was 1380 nM and the GI50 [5] was 2060 nM. It also gave a GI50 [6] of 403 nM, a GI50 [7] of 1430 nM and a GI50 (OVCAR-5) of 3940 nM. It also gave a GI50 [8] of 579 nM, a GI50 (KM12) of 436 nM and a GI50 (MDA-MB-435) of 227 nM. For the same compound, the GI50 (UACC-62) was 478 nM, the GI50 (OVCAR-4) was 13800 nM and the GI50 (OVCAR-3) was 263 nM. It also gave a GI50 (NCI-H23) of 2930 nM, a GI50 (NCI-H522) of 299 nM and a GI50 [9] of 361 nM. The GI50 (SK-MEL-2) was 1050 nM, the GI50 (SF-268) was 9170 nM and the GI50 (MCF7) was 429 nM. It also gave a GI50 (PC-3) of 1080 nM, a GI50 (CAKI-1) of 346 nM and a GI50 (HL-60(TB)) of 329 nM. For the same compound, the GI50 [10] was 343 nM, the GI50 (Malme-3M) was 691 nM and the GI50 (T47D) was 9540 nM. The GI50 (U-251) was 1700 nM, the GI50 (TK-10) was 2550 nM and the GI50 (SNB-19) was 5230 nM. It also gave a GI50 (SK-MEL-28) of 3270 nM, a GI50 (DU-145) of 1510 nM and a GI50 [11] of 1310 nM. The GI50 (A498) was 678 nM, the GI50 (NCI-H460) was 2050 nM and the GI50 (OVCAR-8) was 3410 nM. The GI50 (HT-29) was 421 nM, the GI50 (786-0) was 6290 nM and the GI50 (SK-MEL-5) was 410 nM. The GI50 (EKVX) was “inactive”, the GI50 [12] was 556 nM and the GI50 (MDA-MB-468) was 870 nM. The GI50 (SK-OV-3) was 1340 nM and the GI50 (HCT-15) was 1080 nM.
